Data from the NIST ThermoML archive (doi:10.1016/j.fluid.2017.12.001).

Assay: xn = mol fraction of the nth substance listed
Details: 100.9 kPa, Liquid; for speed of sound: Single path-length method; for mass density: Vibrating tube method; for viscosity: Concentric cylinders viscometry

CCCC(=O)[O-].CC[NH2+]CC [diethylammonium butanoate] + O
Details | mass density [kg/m3] | speed of sound [m/s] | viscosity [mPa·s]
308.15 K, x1 = 0.0123 | 996.9 | – | –
308.15 K, x1 = 0.0453 | 1000.03 | – | –
308.15 K, x1 = 0.1005 | 994.12 | – | –
308.15 K, x1 = 0.1439 | 981.01 | – | –
308.15 K, x1 = 0.2067 | 973.03 | 1659.9 | –
308.15 K, x1 = 0.3096 | 957.65 | 1581.6 | –
308.15 K, x1 = 0.4951 | 938.09 | 1494 | –
308.15 K, x1 = 0.6812 | 927.6 | 1435.5 | –
308.15 K, x1 = 0.7974 | 912 | 1424.2 | –
308.15 K, x1 = 0.974 | 907.1 | 1382.6 | –
310.65 K, x1 = 0.0122 | – | – | 1.06
310.65 K, x1 = 0.0451 | – | – | 2.43
310.65 K, x1 = 0.0999 | – | – | 5.73
310.65 K, x1 = 0.143 | – | – | 8.92
310.65 K, x1 = 0.2051 | – | – | 14.41
310.65 K, x1 = 0.3064 | – | – | 24.13
310.65 K, x1 = 0.4879 | – | – | 34.17
310.65 K, x1 = 0.6684 | – | – | 35.33
310.65 K, x1 = 0.974 | – | – | 30.78
313.15 K, x1 = 0.0122 | – | – | 1.01
313.15 K, x1 = 0.0123 | 995 | 1615.3 | –
313.15 K, x1 = 0.0451 | – | – | 2.26
313.15 K, x1 = 0.0453 | 997.13 | 1743.8 | –
313.15 K, x1 = 0.0999 | – | – | 5.25
313.15 K, x1 = 0.1005 | 991.05 | 1736.7 | –
313.15 K, x1 = 0.143 | – | – | 8.13
313.15 K, x1 = 0.1439 | 977.64 | 1702.2 | –
313.15 K, x1 = 0.2051 | – | – | 13.03
313.15 K, x1 = 0.2067 | 969.96 | 1644.3 | –
313.15 K, x1 = 0.3064 | – | – | 21.59
313.15 K, x1 = 0.3096 | 954.6 | 1565.2 | –
313.15 K, x1 = 0.4879 | – | – | 30.39
313.15 K, x1 = 0.4951 | 934.18 | 1478.3 | –
313.15 K, x1 = 0.6684 | – | – | 31.48
313.15 K, x1 = 0.6812 | 925.21 | 1418.8 | –
313.15 K, x1 = 0.7974 | 908.2 | 1408.5 | –
313.15 K, x1 = 0.974 | 903.2 | 1365.2 | 27.55
315.65 K, x1 = 0.0122 | – | – | 0.96
315.65 K, x1 = 0.0451 | – | – | 2.1
315.65 K, x1 = 0.0999 | – | – | 4.82
315.65 K, x1 = 0.143 | – | – | 7.42
315.65 K, x1 = 0.2051 | – | – | 11.82
315.65 K, x1 = 0.3064 | – | – | 19.39
315.65 K, x1 = 0.4879 | – | – | 27.14
315.65 K, x1 = 0.6684 | – | – | 28.13
315.65 K, x1 = 0.974 | – | – | 24.73
318.15 K, x1 = 0.0122 | – | – | 0.92
318.15 K, x1 = 0.0123 | 992.7 | 1617.5 | –
318.15 K, x1 = 0.0451 | – | – | 1.96
318.15 K, x1 = 0.0453 | 994.15 | 1734.2 | –
318.15 K, x1 = 0.0999 | – | – | 4.45
318.15 K, x1 = 0.1005 | 987.76 | 1722.8 | –
318.15 K, x1 = 0.143 | – | – | 6.82
318.15 K, x1 = 0.1439 | 974.31 | 1687.3 | –
318.15 K, x1 = 0.2051 | – | – | 10.76
318.15 K, x1 = 0.2067 | 967.21 | 1628.7 | –
318.15 K, x1 = 0.3064 | – | – | 17.45
318.15 K, x1 = 0.3096 | 952.7 | 1548.6 | –
318.15 K, x1 = 0.4879 | – | – | 24.28
318.15 K, x1 = 0.4951 | 930.28 | 1462.4 | –
318.15 K, x1 = 0.6684 | – | – | 25.23
318.15 K, x1 = 0.6812 | 922.19 | 1401.9 | –
318.15 K, x1 = 0.7974 | 904.3 | 1393.8 | –
318.15 K, x1 = 0.974 | 899.2 | 1348.2 | 22.26
320.65 K, x1 = 0.0122 | – | – | 0.87
320.65 K, x1 = 0.0451 | – | – | 1.84
320.65 K, x1 = 0.0999 | – | – | 4.11
320.65 K, x1 = 0.143 | – | – | 6.24
320.65 K, x1 = 0.2051 | – | – | 9.82
320.65 K, x1 = 0.3064 | – | – | 15.77
320.65 K, x1 = 0.4879 | – | – | 21.77
320.65 K, x1 = 0.6684 | – | – | 22.68
320.65 K, x1 = 0.974 | – | – | 20.08
323.15 K, x1 = 0.0122 | – | – | 0.84
323.15 K, x1 = 0.0123 | 990.45 | 1618.6 | –
323.15 K, x1 = 0.0451 | – | – | 1.72
323.15 K, x1 = 0.0453 | 991.08 | 1724.2 | –
323.15 K, x1 = 0.0999 | – | – | 3.8
323.15 K, x1 = 0.1005 | 984.28 | 1708.8 | –
323.15 K, x1 = 0.143 | – | – | 5.75
323.15 K, x1 = 0.1439 | 971.05 | 1672.4 | –
323.15 K, x1 = 0.2051 | – | – | 8.98
323.15 K, x1 = 0.2067 | 964.37 | 1612.6 | –
323.15 K, x1 = 0.3064 | – | – | 14.26
323.15 K, x1 = 0.3096 | 949.4 | 1531.7 | –
323.15 K, x1 = 0.4879 | – | – | 19.64
323.15 K, x1 = 0.4951 | 926.37 | 1446.2 | –
323.15 K, x1 = 0.6684 | – | – | 20.46
323.15 K, x1 = 0.6812 | 918.45 | 1384.7 | –
323.15 K, x1 = 0.7974 | 900.35 | 1379.5 | –
323.15 K, x1 = 0.974 | 895.2 | 1343.3 | 18.14
325.65 K, x1 = 0.0122 | – | – | 0.8
325.65 K, x1 = 0.0451 | – | – | 1.62
325.65 K, x1 = 0.0999 | – | – | 3.53
325.65 K, x1 = 0.143 | – | – | 5.31
325.65 K, x1 = 0.2051 | – | – | 8.24
325.65 K, x1 = 0.3064 | – | – | 12.94
325.65 K, x1 = 0.4879 | – | – | 17.73
325.65 K, x1 = 0.6684 | – | – | 18.49
325.65 K, x1 = 0.974 | – | – | 16.45
328.15 K, x1 = 0.0122 | – | – | 0.75
328.15 K, x1 = 0.0451 | – | – | 1.52
328.15 K, x1 = 0.0999 | – | – | 3.29
328.15 K, x1 = 0.143 | – | – | 4.92
328.15 K, x1 = 0.2051 | – | – | 7.58
328.15 K, x1 = 0.3064 | – | – | 11.79
328.15 K, x1 = 0.4879 | – | – | 16.02
328.15 K, x1 = 0.6684 | – | – | 16.76
328.15 K, x1 = 0.974 | – | – | 14.94
330.65 K, x1 = 0.0122 | – | – | 0.72
330.65 K, x1 = 0.0451 | – | – | 1.44
330.65 K, x1 = 0.0999 | – | – | 3.07
330.65 K, x1 = 0.143 | – | – | 4.57
330.65 K, x1 = 0.2051 | – | – | 6.99
330.65 K, x1 = 0.3064 | – | – | 10.77
330.65 K, x1 = 0.4879 | – | – | 14.54
330.65 K, x1 = 0.6684 | – | – | 15.23
330.65 K, x1 = 0.974 | – | – | 13.61
333.15 K, x1 = 0.0122 | – | – | 0.69
333.15 K, x1 = 0.0451 | – | – | 1.36
333.15 K, x1 = 0.0999 | – | – | 2.87
333.15 K, x1 = 0.143 | – | – | 4.25
333.15 K, x1 = 0.2051 | – | – | 6.46
333.15 K, x1 = 0.3064 | – | – | 9.86
333.15 K, x1 = 0.4879 | – | – | 13.24
333.15 K, x1 = 0.6684 | – | – | 13.86
333.15 K, x1 = 0.974 | – | – | 12.38
335.65 K, x1 = 0.0122 | – | – | 0.66
335.65 K, x1 = 0.0451 | – | – | 1.29
335.65 K, x1 = 0.0999 | – | – | 2.7
335.65 K, x1 = 0.143 | – | – | 3.96
335.65 K, x1 = 0.2051 | – | – | 5.98
335.65 K, x1 = 0.3064 | – | – | 9.05
335.65 K, x1 = 0.4879 | – | – | 12.07
335.65 K, x1 = 0.6684 | – | – | 12.64
335.65 K, x1 = 0.974 | – | – | 11.33
338.15 K, x1 = 0.0122 | – | – | 0.64
338.15 K, x1 = 0.0451 | – | – | 1.22
338.15 K, x1 = 0.0999 | – | – | 2.53
338.15 K, x1 = 0.143 | – | – | 3.7
338.15 K, x1 = 0.2051 | – | – | 5.55
338.15 K, x1 = 0.3064 | – | – | 8.33
338.15 K, x1 = 0.4879 | – | – | 11.03
338.15 K, x1 = 0.6684 | – | – | 11.56
338.15 K, x1 = 0.974 | – | – | 10.37
340.65 K, x1 = 0.0122 | – | – | 0.61
340.65 K, x1 = 0.0451 | – | – | 1.16
340.65 K, x1 = 0.0999 | – | – | 2.39
340.65 K, x1 = 0.143 | – | – | 3.46
340.65 K, x1 = 0.2051 | – | – | 5.16
340.65 K, x1 = 0.3064 | – | – | 7.68
340.65 K, x1 = 0.4879 | – | – | 10.11
340.65 K, x1 = 0.6684 | – | – | 10.59
340.65 K, x1 = 0.974 | – | – | 9.48
343.15 K, x1 = 0.0122 | – | – | 0.59
343.15 K, x1 = 0.0451 | – | – | 1.1
343.15 K, x1 = 0.0999 | – | – | 2.25
343.15 K, x1 = 0.143 | – | – | 3.24
343.15 K, x1 = 0.2051 | – | – | 4.81
343.15 K, x1 = 0.3064 | – | – | 7.09
343.15 K, x1 = 0.4879 | – | – | 9.28
343.15 K, x1 = 0.6684 | – | – | 9.64
343.15 K, x1 = 0.974 | – | – | 8.7
